According to PubChem BioAssay AID248 (DTP/NCI, 2004):
Where “and” joins values, the source holds several entries; their conditions need not be identical. Identical values can stand only once. Inconclusive results and toxic doses are left out. Rule as the data show it: active = T/C of 150% or more; inactive = T/C below 125%.

Test system: L1210 leukemia ip in BDF1 mice, survival T/C
Test: NCI In Vivo Anticancer Drug Screen. Data for tumor model L1210 Leukemia (intraperitoneal) in B6D2F1 (BDF1) mice
Settings: endpoint: mean survival time, higher = longer survival
How it was run: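 Value reflects the ratio of survival in compound-treated mice to survival in vehicle-treated controls, with both groups carrying the same transplanted tumor.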

[1] = dose: 6.25 mg/kg/injection, schedule: Q01DX009 (ip), vehicle: saline
[2] = dose: 12.5 mg/kg/injection, schedule: Q01DX009 (ip), vehicle: saline
[3] = dose: 25.0 mg/kg/injection, schedule: Q01DX009 (ip), vehicle: saline
[4] = dose: 100.0 mg/kg/injection, schedule: Q01DX001 (ip), vehicle: saline
[5] = dose: 100.0 mg/kg/injection, schedule: Q01DX001 (ip), vehicle: saline with Tween-80
[6] = dose: 100.0 mg/kg/injection, schedule: Q01DX009 (ip), vehicle: saline with Tween-80
[7] = dose: 100.0 mg/kg/injection, schedule: Q04DX003 (ip), vehicle: saline with Tween-80
[8] = dose: 200.0 mg/kg/injection, schedule: Q01DX009 (ip), vehicle: saline with Tween-80
[9] = dose: 200.0 mg/kg/injection, schedule: Q04DX003 (ip), vehicle: saline with Tween-80
[10] = dose: 400.0 mg/kg/injection, schedule: Q04DX003 (ip), vehicle: saline with Tween-80
[11] = dose: 100.0 mg/kg/injection, schedule: Q01DX009 (ip), vehicle: Klucel (hydroxypropylcellulose) (HPC)
[12] = dose: 100.0 mg/kg/injection, schedule: Q04DX003 (ip), vehicle: Klucel (hydroxypropylcellulose) (HPC)
[13] = dose: 200.0 mg/kg/injection, schedule: Q01DX009 (ip), vehicle: Klucel (hydroxypropylcellulose) (HPC)
[14] = dose: 200.0 mg/kg/injection, schedule: Q04DX003 (ip), vehicle: Klucel (hydroxypropylcellulose) (HPC)
[15] = dose: 400.0 mg/kg/injection, schedule: Q04DX003 (ip), vehicle: Klucel (hydroxypropylcellulose) (HPC)
[16] = dose: 50.0 mg/kg/injection, schedule: Q01DX009 (ip), vehicle: saline with Tween-80
[17] = dose: 100.0 mg/kg/injection, schedule: Q04DX003 (ip), vehicle: saline
[18] = dose: 200.0 mg/kg/injection, schedule: Q04DX003 (ip), vehicle: saline
[19] = dose: 400.0 mg/kg/injection, schedule: Q04DX003 (ip), vehicle: saline
[20] = dose: 75.0 mg/kg/injection, schedule: Q01DX001 (ip), vehicle: other
[21] = dose: 150.0 mg/kg/injection, schedule: Q01DX001 (ip), vehicle: other
[22] = dose: 300.0 mg/kg/injection, schedule: Q01DX001 (ip), vehicle: other

Measured: T/C

Cc1cc(CSC2=NCCCN2)c(CSC2=NCCCN2)cc1C
inactive: dose: 6.25 mg/kg/injection, schedule: Q01DX001 (ip), vehicle: saline 96 % of control | [1] 100 % of control and 111 % of control | dose: 6.25 mg/kg/injection, schedule: Q04DX002 (ip), vehicle: saline with Tween-80 94 % of control | dose: 6.25 mg/kg/injection, schedule: Q04DX003 (ip), vehicle: saline 91 % of control | dose: 12.5 mg/kg/injection, schedule: Q01DX001 (ip), vehicle: saline 97 % of control | [2] 102 % of control and 92 % of control | dose: 12.5 mg/kg/injection, schedule: Q04DX002 (ip), vehicle: saline with Tween-80 97 % of control | dose: 12.5 mg/kg/injection, schedule: Q04DX003 (ip), vehicle: saline 90 % of control | dose: 25.0 mg/kg/injection, schedule: Q01DX001 (ip), vehicle: saline 99 % of control and 108 % of control | [3] 96 % of control and 101 % of control | dose: 25.0 mg/kg/injection, schedule: Q04DX002 (ip), vehicle: saline with Tween-80 100 % of control | dose: 25.0 mg/kg/injection, schedule: Q04DX002 (ip), vehicle: saline 87 % of control | dose: 25.0 mg/kg/injection, schedule: Q04DX003 (ip), vehicle: saline 89 % of control | [4] 93 % of control

O=C(Nc1cccc2ccccc12)OCc1ccco1
inactive: [5] 96 % of control | [6] 93 % of control and 96 % of control | dose: 100.0 mg/kg/injection, schedule: Q04DX002 (ip), vehicle: saline with Tween-80 96 % of control and 118 % of control | [7] 105 % of control | dose: 200.0 mg/kg/injection, schedule: Q01DX001 (ip), vehicle: saline with Tween-80 97 % of control | [8] 100 % of control and 86 % of control | dose: 200.0 mg/kg/injection, schedule: Q04DX002 (ip), vehicle: saline with Tween-80 96 % of control and 91 % of control | [9] 100 % of control | dose: 400.0 mg/kg/injection, schedule: Q01DX001 (ip), vehicle: saline with Tween-80 103 % of control | dose: 400.0 mg/kg/injection, schedule: Q01DX009 (ip), vehicle: saline with Tween-80 93 % of control and 94 % of control | dose: 400.0 mg/kg/injection, schedule: Q04DX002 (ip), vehicle: saline with Tween-80 104 % of control | [10] 103 % of control

CCOC(=O)/C(C(C)=O)=C(/O)c1ccc(OC(F)(F)C(F)Cl)cc1OC(F)(F)C(F)Cl.CCOC(=O)/C(C(C)=O)=C(/O)c1ccc(OC(F)(F)C(F)Cl)cc1OC(F)(F)C(F)Cl.[Cu] (stereo not given)
inactive: [11] 88 % of control | [12] 100 % of control | [13] 94 % of control | [14] 101 % of control | [15] 101 % of control

O=C(O)CC1CCC(CC(=O)O)CC1 (stereo not given)
inactive: [7] 92 % of control | [9] 89 % of control | [10] 94 % of control

COc1cc(OC)c(NC(=S)Nc2ccc([N+](=O)[O-])cc2)cc1Cl
inactive: [16] 92 % of control | [6] 88 % of control | [8] 90 % of control

CCOC(=O)C1CCCNC1 (stereo not given)
inactive: dose: 100.0 mg/kg/injection, schedule: Q01DX009 (ip), vehicle: saline 96 % of control | [17] 98 % of control | dose: 200.0 mg/kg/injection, schedule: Q01DX009 (ip), vehicle: saline 91 % of control | [18] 101 % of control | dose: 400.0 mg/kg/injection, schedule: Q01DX009 (ip), vehicle: saline 100 % of control | [19] 94 % of control

CC(C)CNC(=S)Nc1ccccc1
inactive: [20] 98 % of control | [21] 98 % of control | [22] 102 % of control

CN1c2ccc3ccccc3c2Sc2ccc3ccccc3c21
inactive: dose: 100.0 mg/kg/injection, schedule: Q01DX009 (ip), vehicle: acetone 100 % of control | [17] 94 % of control | dose: 200.0 mg/kg/injection, schedule: Q01DX009 (ip), vehicle: acetone 100 % of control | [18] 95 % of control | dose: 400.0 mg/kg/injection, schedule: Q01DX009 (ip), vehicle: acetone 88 % of control | [19] 97 % of control

NCCNc1ncnc2c1ncn2C1OC(CO)C(O)C1O (stereo not given)
inactive: [1] 115 % of control | dose: 12.5 mg/kg/injection, schedule: Q01DX005 (ip), vehicle: saline 101 % of control | [2] 111 % of control | dose: 25.0 mg/kg/injection, schedule: Q01DX005 (ip), vehicle: saline 100 % of control | [3] 117 % of control | dose: 50.0 mg/kg/injection, schedule: Q01DX005 (ip), vehicle: saline 97 % of control | dose: 100.0 mg/kg/injection, schedule: Q01DX005 (ip), vehicle: saline 86 % of control

COC(=O)N/N=C/c1ccc(Cl)cc1Cl
inactive: dose: 6.25 mg/kg/injection, schedule: Q01DX009 (ip), vehicle: Klucel (hydroxypropylcellulose) (HPC) 94 % of control | dose: 12.5 mg/kg/injection, schedule: Q01DX009 (ip), vehicle: Klucel (hydroxypropylcellulose) (HPC) 101 % of control | dose: 25.0 mg/kg/injection, schedule: Q01DX009 (ip), vehicle: Klucel (hydroxypropylcellulose) (HPC) 94 % of control and 92 % of control

Cc1ccc2c(c1C)-c1c(ccc(C)c1C)C(=O)C2=O
inactive: dose: 50.0 mg/kg/injection, schedule: Q04DX002 (ip), vehicle: Klucel (hydroxypropylcellulose) (HPC) 91 % of control | dose: 100.0 mg/kg/injection, schedule: Q04DX002 (ip), vehicle: Klucel (hydroxypropylcellulose) (HPC) 102 % of control and 113 % of control | dose: 200.0 mg/kg/injection, schedule: Q04DX002 (ip), vehicle: Klucel (hydroxypropylcellulose) (HPC) 94 % of control | dose: 400.0 mg/kg/injection, schedule: Q04DX002 (ip), vehicle: Klucel (hydroxypropylcellulose) (HPC) 94 % of control and 100 % of control

N#[N+]c1nc[nH]c1C(N)=O
inactive: dose: 0.4 mg/kg/injection, schedule: Q03HX008 (ip), vehicle: steriod suspending solution 92 % of control | dose: 0.6 mg/kg/injection, schedule: Q03HX008 (ip), vehicle: steriod suspending solution 96 % of control | dose: 0.9 mg/kg/injection, schedule: Q03HX008 (ip), vehicle: steriod suspending solution 97 % of control | dose: 1.3 mg/kg/injection, schedule: Q03HX008 (ip), vehicle: steriod suspending solution 89 % of control | dose: 1.8 mg/kg/injection, schedule: Q03HX008 (ip), vehicle: steriod suspending solution 92 % of control | dose: 2.6 mg/kg/injection, schedule: Q03HX008 (ip), vehicle: steriod suspending solution 97 % of control | dose: 3.75 mg/kg/injection, schedule: Q01DX001 (ip), vehicle: steriod suspending solution 93 % of control | dose: 3.8 mg/kg/injection, schedule: Q03HX008 (ip), vehicle: steriod suspending solution 95 % of control | dose: 6.25 mg/kg/injection, schedule: Q01DX001 (ip), vehicle: steriod suspending solution 96 % of control | dose: 12.5 mg/kg/injection, schedule: Q01DX001 (ip), vehicle: steriod suspending solution 99 % of control

NC(=O)N/N=C1/C=C2CCCCC2CC1 (stereo not given)
inactive: [20] 101 % of control | [21] 95 % of control | [22] 100 % of control

CC(=O)c1cccc(N=C=O)c1
inactive: dose: 25.0 mg/kg/injection, schedule: Q01DX001 (ip), vehicle: saline with Tween-80 101 % of control | dose: 50.0 mg/kg/injection, schedule: Q01DX001 (ip), vehicle: saline with Tween-80 93 % of control | [5] 111 % of control

CC(C)(CO)CN1CCCC1
inactive: [4] 103 % of control | dose: 200.0 mg/kg/injection, schedule: Q01DX001 (ip), vehicle: saline 100 % of control

O=C1C2C(C(=O)N1c1ccc(Br)cc1)C1(Cl)C(Cl)=C(Cl)C2(Cl)C1(Cl)Cl (stereo not given)
inactive: [11] 104 % of control | [12] 101 % of control | [13] 102 % of control | [14] 111 % of control | dose: 400.0 mg/kg/injection, schedule: Q01DX009 (ip), vehicle: Klucel (hydroxypropylcellulose) (HPC) 96 % of control | [15] 104 % of control

CCOC(=O)Cc1cnc(SC)nc1Cl
inactive: [16] 98 % of control | [6] 91 % of control | [7] 92 % of control | [8] 88 % of control | [9] 92 % of control
